The test system of one assay is pERK in MKN1 cells. In words: pERK inhibition, In-Cell Western (LI-COR Odyssey), MKN1 cells. The assay is classed as cell-based. As to conditions: Homo sapiens. Put shortly:
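IC50 was fitted from % pERK inhibition, calculated as the GAPDH-normalised pERK signal of each well divided by the vehicle mean. Signal was imaged at 700 and 800 nm after fixation, methanol permeabilisation and dual antibody staining. Before fixation, MKN1 cells had received compound for about 0.5–1 h at 37 °C, top concentration 10 µM, nine 3-fold dilutions.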

The target in assay [1] is T1, recombinant human SOS1 polypeptide (amino acids 560-1049) (Homo sapiens, UniProt Q07889).
T1 construct: corresponding to amino acids 560-1049, expressed in E. Coli; made in house; host or cells: E. coli
T1 sequence (Q07889 560-1049): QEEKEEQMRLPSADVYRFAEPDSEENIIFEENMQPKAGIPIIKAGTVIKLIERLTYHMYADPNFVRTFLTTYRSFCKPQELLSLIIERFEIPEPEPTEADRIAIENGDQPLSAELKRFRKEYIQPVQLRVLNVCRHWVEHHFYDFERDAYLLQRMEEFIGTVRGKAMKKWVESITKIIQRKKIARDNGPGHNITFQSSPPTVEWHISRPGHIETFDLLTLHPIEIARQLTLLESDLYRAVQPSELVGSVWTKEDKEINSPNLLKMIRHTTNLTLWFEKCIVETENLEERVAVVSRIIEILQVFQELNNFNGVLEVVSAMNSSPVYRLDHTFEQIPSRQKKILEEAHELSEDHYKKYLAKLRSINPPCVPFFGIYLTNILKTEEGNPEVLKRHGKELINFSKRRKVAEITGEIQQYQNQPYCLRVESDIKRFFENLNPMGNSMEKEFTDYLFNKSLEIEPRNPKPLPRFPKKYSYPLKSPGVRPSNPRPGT
Put plainly: HTRF displacement assay: inhibition of labeled tracer binding to SOS1. As to conditions: Table A1, Morrison equation for competitive binding.
Experimental: The ability of a compound of Formula (I) to bind to SOS1 was measured using a HTRF displacement assay. […] After a 1-hour incubation at room temperature, the HTRF signal was measured using Clairostar plate reader (BMG Labtech) according to the manufacturer's instructions. Excitation filter EX-TR was used, and emission 1 was detected at 650-610 nm and emission 2 detected at 620-610 nm. The HTRF ratio was calculated using the formula: [emission 1/emission 2]*10000.
Background signals were calculated from well with a 10 μM inhibitor, known to inhibit 100% at that concentration. The background subtracted signals were converted to % binding relative to DMSO controls. Data were analyzed using XLFIT software (IDBS) using a Morrison equation for competitive binding and Ki's were generated compound of Formula (I).

The mark [2] stands for this setting: MKN-1, Table B1, MKN1 or H358 cells (table does not say which), 0.5-1 hour incubation, read-out: IC50 (nM), pERK inhibition.

Counter-ions that a name gives are not always drawn. Like-named read-outs stand apart in the source and are kept apart here.

On to `Cc1c(C#N)cccc1[C@@H](C)Nc1nnc(C)c2cnc(N3CCc4c(cnn4C)C3)cc12` [Example P-39, (R)-2-methyl-3-(1-((4-methyl-7-(1-methyl-1,4,6,7-tetrahydro-5H-pyrazolo[4,3-c]pyridin-5-yl)pyrido[3,4-d]pyridazin-1-yl)amino)ethyl)benzonitrile], for which the IC50 in the assay with pERK in MKN1 cells (setting [2]) was 96.9 nM. The Ki in assay [1] came out at 1.1 nM.
Regarding `Cc1c(C#N)cccc1[C@@H](C)Nc1nnc(C)c2cnc(N3CCc4c(ncn4C)C3)cc12` [Example P-45, (R)-2-methyl-3-(1-((4-methyl-7-(1-methyl-1,4,6,7-tetrahydro-5H-imidazo[4,5-c]pyridin-5-yl)pyrido[3,4-d]pyridazin-1-yl)amino)ethyl)benzonitrile], in the assay with pERK in MKN1 cells (setting [2]), the IC50 worked out at 176 nM. For the same molecule, in assay [1], the Ki turned out to be 0.777 nM.
In the same order, the values of `Cc1c(C#N)cccc1[C@@H](C)Nc1nnc(C)c2cnc(N3CCc4ncn(C)c4C3)cc12` [Example P-57, (R)-2-methyl-3-(1-((4-methyl-7-(3-methyl-3,4,6,7-tetrahydro-5H-imidazo[4,5-c]pyridin-5-yl)pyrido[3,4-d]pyridazin-1-yl)amino)ethyl)benzonitrile] are 914 nM and 1.17 nM.
As for `COC1(c2cc3c(N[C@H](C)c4cccc(C#N)c4C)nnc(C)c3cn2)CCN(C)CC1` [Example P-69, (R)-3-(1-((7-(4-methoxy-1-methylpiperidin-4-yl)-4-methylpyrido[3,4-d]pyridazin-1-yl)amino)ethyl)-2-methylbenzonitrile], in the assay on pERK in MKN1 cells (setting [2]), the IC50 was 849 nM. The Ki in assay [1] came out at 51.8 nM.
In the same order, the values of `COC1(c2cc3c(N[C@H](C)c4cccc(C#N)c4C)nnc(C)c3cn2)CCN(C(C)=O)CC1` [Example P-75, (R)-3-(1-((7-(1-acetyl-4-methoxypiperidin-4-yl)-4-methylpyrido[3,4-d]pyridazin-1-yl)amino)ethyl)-2-methylbenzonitrile] are 568 nM and 17.6 nM.
With `COC1(c2cc3c(N[C@H](C)c4cccc(C#N)c4C)nnc(C)c3cn2)CCOCC1` [Example P-81, (R)-3-(1-((7-(4-methoxytetrahydro-2H-pyran-4-yl)-4-methylpyrido[3,4-d]pyridazin-1-yl)amino)ethyl)-2-methylbenzonitrile], the IC50 in the assay on pERK in MKN1 cells (setting [2]) is 565 nM. The inhibition constant Ki in assay [1] was found to be 61.7 nM.
For `COC1(c2cc3c(N[C@H](C)c4cccc(C#N)c4C)nnc(C)c3cc2F)CCN(C)CC1` [Example P-153, (R)-3-(1-((6-fluoro-7-(4-methoxy-1-methylpiperidin-4-yl)-4-methylphthalazin-1-yl)amino)ethyl)-2-methylbenzonitrile], in the assay on pERK in MKN1 cells (setting [2]), the half-maximal inhibitory concentration (IC50) was found to be 909 nM. In assay [1], the inhibition constant (Ki) is 16.6 nM.
The matching figures for `COC1(c2cc3c(N[C@H](C)c4cccc(C#N)c4C)nnc(C)c3cc2F)CCN(C(C)=O)CC1` [Example P-159, (R)-3-(1-((7-(1-acetyl-4-methoxypiperidin-4-yl)-6-fluoro-4-methylphthalazin-1-yl)amino)ethyl)-2-methylbenzonitrile]: 100 nM and 2.2 nM.
In the same order, the values of `COC1(c2cc3c(N[C@H](C)c4cccc(C#N)c4C)nnc(C)c3cc2F)CCOCC1` [Example P-165, (R)-3-(1-((6-fluoro-7-(4-methoxytetrahydro-2H-pyran-4-yl)-4-methylphthalazin-1-yl)amino)ethyl)-2-methylbenzonitrile] are 352 nM and 4.66 nM.
The matching figures for `Cc1nnc(N[C@H](C)c2cccc(C(C)(F)F)c2F)c2cc(N3CCOCC3)ncc12` [Example P-169, (R)-N-(1-(3-(1,1-difluoroethyl)-2-fluorophenyl)ethyl)-4-methyl-7-morpholinopyrido[3,4-d]pyridazin-1-amine]: 71.4 nM and 0.827 nM.
As to `Cc1nnc(N[C@H](C)c2cccc(C(C)(F)F)c2F)c2cc(N(C)C)ncc12` [Example P-170, (R)-N1-(1-(3-(1,1-difluoroethyl)-2-fluorophenyl)ethyl)-N7,N7,4-trimethylpyrido[3,4-d]pyridazine-1,7-diamine], in the assay on pERK in MKN1 cells (setting [2]), the IC50 is 192 nM. Further, the inhibition constant Ki in assay [1] was determined as 2.18 nM.
In the same order, the values of `Cc1nnc(N[C@H](C)c2cccc(C(C)(F)F)c2F)c2cc(N3CCN4CCOC[C@@H]4C3)ncc12` [Example P-171, N-((R)-1-(3-(1,1-difluoroethyl)-2-fluorophenyl)ethyl)-7-((S)-hexahydropyrazino[2,1-c][1,4]oxazin-8(1H)-yl)-4-methylpyrido[3,4-d]pyridazin-1-amine] are 28.5 nM and 0.425 nM.
In the same order, the values of `Cc1c(C#N)cccc1[C@@H](C)Nc1nnc(C)c2cc(F)c(-c3ccc(=O)n(C)c3)cc12` [Example P-172, (R)-3-(1-((6-fluoro-4-methyl-7-(1-methyl-6-oxo-1,6-dihydropyridin-3-yl)phthalazin-1-yl)amino)ethyl)-2-methylbenzonitrile] are 457 nM and 12.5 nM.
Turning to `Cc1nnc(N[C@H](C)c2cccc(C(C)(F)F)c2F)c2cc(-c3ccc(=O)n(C)c3)c(F)cc12` [Example P-173, (R)-5-(4-((1-(3-(1,1-difluoroethyl)-2-fluorophenyl)ethyl)amino)-7-fluoro-1-methylphthalazin-6-yl)-1-methylpyridin-2(1H)-one], the IC50 with pERK in MKN1 cells (setting [2]) was 573 nM. The inhibition constant Ki in assay [1] was determined as 8.31 nM.
In the same order, the values of `Cc1c(C#N)cccc1[C@@H](C)Nc1nnc(C)c2cnc(-c3ccc(=O)n(C)c3)cc12` [Example P-174, (R)-2-methyl-3-(1-((4-methyl-7-(1-methyl-6-oxo-1,6-dihydropyridin-3-yl)pyrido[3,4-d]pyridazin-1-yl)amino)ethyl)benzonitrile] are 1330 nM and 43.5 nM.
In the same order, the values of `Cc1nnc(N[C@H](C)c2cccc(C(C)(F)F)c2F)c2cc(-c3ccc(=O)n(C)c3)ncc12` [Example P-175, (R)-5-(1-((1-(3-(1,1-difluoroethyl)-2-fluorophenyl)ethyl)amino)-4-methylpyrido[3,4-d]pyridazin-7-yl)-1-methylpyridin-2(1H)-one] are 415 nM and 15.4 nM.
On to `Cc1c(C#N)cccc1[C@@H](C)Nc1nnc(N2CC[C@H](N(C)C)C2)c2cnc(N3C[C@H]4C[C@@H]3CO4)cc12` [Example P-176, 3-((R)-1-((7-((1R,4R)-2-oxa-5-azabicyclo[2.2.1]heptan-5-yl)-4-((S)-3-(dimethylamino)pyrrolidin-1-yl)pyrido[3,4-d]pyridazin-1-yl)amino)ethyl)-2-methylbenzonitrile], for which the half-maximal inhibitory concentration (IC50) with pERK in MKN1 cells (setting [2]) worked out at 120 nM. For the same molecule, the Ki in assay [1] was 0.708 nM.
The matching figures for `Cc1c(C#N)cccc1[C@@H](C)Nc1nnc(N2CC(N)C2)c2cnc(N3C[C@H]4C[C@@H]3CO4)cc12` [Example P-177, 3-((R)-1-((4-(3-aminoazetidin-1-yl)-7-((1R,4R)-2-oxa-5-azabicyclo[2.2.1]heptan-5-yl)pyrido[3,4-d]pyridazin-1-yl)amino)ethyl)-2-methylbenzonitrile]: 451 nM and 0.541 nM.
The matching figures for `Cc1c(C#N)cccc1[C@@H](C)Nc1nnc(C)c2cc(F)c(N(C)[C@@H]3CCN(C)C3)cc12` [Example P-178, 3-((R)-1-((6-fluoro-4-methyl-7-(methyl((R)-1-methylpyrrolidin-3-yl)amino)phthalazin-1-yl)amino)ethyl)-2-methylbenzonitrile]: 54.7 nM and 1.1 nM.
In the same order, the values of `Cc1c(C#N)cccc1[C@@H](C)Nc1nnc(C)c2cc(F)c(N(C)[C@H]3CCN(C)C3)cc12` [Example P-179, 3-((R)-1-((6-fluoro-4-methyl-7-(methyl((S)-1-methylpyrrolidin-3-yl)amino)phthalazin-1-yl)amino)ethyl)-2-methylbenzonitrile] are 84.7 nM and 0.714 nM.
As for `Cc1c(C#N)cccc1[C@@H](C)Nc1nnc(N2CC(N(C)C)C2)c2cnc(N3C[C@H]4C[C@@H]3CO4)cc12` [Example P-180, 3-((R)-1-((7-((1R,4R)-2-oxa-5-azabicyclo[2.2.1]heptan-5-yl)-4-(3-(dimethylamino)azetidin-1-yl)pyrido[3,4-d]pyridazin-1-yl)amino)ethyl)-2-methylbenzonitrile], the IC50 with pERK in MKN1 cells (setting [2]) amounted to 53.4 nM. Besides, the inhibitory constant (Ki) in assay [1] turned out to be 0.491 nM.
In the same order, the values of `Cc1nnc(N[C@H](C)c2cccc(C(F)(F)F)c2F)c2cc(N(C)[C@H]3CCN(C)C3)c(F)cc12` [Example P-181, 6-fluoro-N^1-((R)-1-(2-fluoro-3-(trifluoromethyl)phenyl)ethyl)-N7,4-dimethyl-N^7-((S)-1-methylpyrrolidin-3-yl)phthalazine-1,7-diamine] are 223 nM and 0.711 nM.
With `Cc1nnc(N[C@H](C)c2cccc3c2OCC3(F)F)c2cc(N3C[C@@H]4C[C@H]3CN4C)ncc12` [Example P-184, N-((R)-1-(3,3-difluoro-2,3-dihydrobenzofuran-7-yl)ethyl)-4-methyl-7-((1S,4S)-5-methyl-2,5-diazabicyclo[2.2.1]heptan-2-yl)pyrido[3,4-d]pyridazin-1-amine formic acid salt], the IC50 with pERK in MKN1 cells (MKN-1, read-out: IC50 (nM), pERK inhibition) was determined as 65.7 nM. Moreover, the inhibition constant (Ki) in assay [1] is 1.02 nM.

(Values after patent publication US20250059182A1, “SOS1 INHIBITORS” (Mirati Therapeutics, Inc., priority 2021, published 2025).)
